# Laboratory results from patent US20260262643A1, “HERBICIDAL BENZOXAZINES” (FMC CORPORATION, priority 2022, published 2026).
# Tests used:
# blackgrass [1] = assay: Test C preemergence; type: in vivo, Alopecurus myosuroides
# Procedure, shortened: (§1)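 Greenhouse herbicide screen, 10-day duration. Test chemicals in solvent/surfactant blend were sprayed onto soil at sowing (pre) or onto 2–10 cm seedlings at one to two leaves (post); injury scored visually against controls, 0 no effect to 100 complete control.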
# barnyardgrass [2] = assay: Test C preemergence; type: in vivo, Echinochloa crusgalli
# Procedure, shortened: as §1
# kochia [3] = assay: Test C preemergence; type: in vivo, Bassia scoparia
# Procedure, shortened: as §1
# oat, wild [4] = assay: Test C postemergence; type: in vivo, Avena fatua; conditions: 10 days, 0 to 100 scale (0 no effect, 100 complete control)
# Procedure, shortened: as §1
# kochia [5] = assay: Test C postemergence; type: in vivo, Bassia scoparia; conditions: 10 days, 0 to 100 scale (0 no effect, 100 complete control)
# Procedure, shortened: as §1
# corn = assay: Test C postemergence; type: in vivo, Zea mays; conditions: 10 days, 0 to 100 scale (0 no effect, 100 complete control)
# Procedure, shortened: as §1
# ragweed [6] = assay: Test C postemergence; type: in vivo, Ambrosia artemisiifolia; conditions: 10 days, 0 to 100 scale (0 no effect, 100 complete control)
# Procedure, shortened: as §1
# ragweed [7] = assay: Test C preemergence; type: in vivo, Ambrosia artemisiifolia
# Procedure, shortened: as §1
# soybean [8] = assay: Test C postemergence; type: in vivo, Glycine max; conditions: 10 days, 0 to 100 scale (0 no effect, 100 complete control)
# Procedure, shortened: as §1
# wheat [9] = assay: Test C preemergence; type: in vivo, Triticum aestivum
# Procedure, shortened: as §1
# barnyardgrass [10] = assay: Test D flooded paddy test; type: in vivo, Echinochloa crus-galli; conditions: 250 g ai/ha, applied to paddy water, visual rating after 13 to 14 days, scale 0 to 100 (0 no effect, 100 complete control)
# Procedure, shortened: (§2)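 Post-flood water application at the 2-leaf stage; 3 cm flood depth kept constant; visual control rating 0–100 after 13–14 days greenhouse growth.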
# galium = assay: Test C postemergence; type: in vivo, Galium aparine; conditions: 10 days, 0 to 100 scale (0 no effect, 100 complete control)
# Procedure, shortened: as §1
# horseweed = assay: Test C postemergence; type: in vivo, Erigeron canadensis; conditions: 10 days, 0 to 100 scale (0 no effect, 100 complete control)
# Procedure, shortened: as §1
# ryegrass, Italian [11] = assay: Test C preemergence; type: in vivo, Lolium multiflorum
# Procedure, shortened: as §1
# pigweed, palmer [12] = assay: Test C postemergence; type: in vivo, Amaranthus palmeri; conditions: 10 days, 0 to 100 scale (0 no effect, 100 complete control)
# Procedure, shortened: as §1
# blackgrass [13] = assay: Test C postemergence; type: in vivo, Alopecurus myosuroides; conditions: 10 days, 0 to 100 scale (0 no effect, 100 complete control)
# Procedure, shortened: as §1
# barnyardgrass [14] = assay: Test C postemergence; type: in vivo, Echinochloa crusgalli; conditions: 10 days, 0 to 100 scale (0 no effect, 100 complete control)
# Procedure, shortened: as §1
# foxtail, giant [15] = assay: Test C preemergence; type: in vivo, Setaria faberi
# Description: (§3) Seeds of plant species selected from barnyardgrass (Echinochloa crusgalli), blackgrass (Alopecurus myosuroides), corn (Zea mays), foxtail, giant (giant foxtail, Setaria faberi), green foxtail (Setaria viridis), goosegrass (Eleusine indica), kochia (Bassia scoparia), oat, wild (wild oat, Avena fatua), pigweed, palmer (palmer amaranth, palmer pigweed, Amaranthus palmeri), Pigweed, Redroot (redroot pigweed, Amaranthus retroflexus), ragweed (common ragweed, Ambrosia artemisiifolia), ryegrass, Italian ([…] ryegrass, Lolium multiflorum), soybean (Glycine max), and wheat (Triticum aestivum) were planted into a blend of loam soil and sand and treated preemergence with a directed soil spray using test chemicals formulated in a non-phytotoxic solvent mixture which included a surfactant. At the same time, plants selected from these crops and weed species and also galium (catchweed bedstraw, Galium aparine) and horseweed (Erigeron canadensis) were planted in pots containing the same blend of loam soil and sand and treated with postemergence applications of test chemicals formulated in the same manner. Plants ranged in height from 2 to 10 cm and were in the one- to two-leaf stage for the postemergence treatment. Treated plants and untreated controls were maintained in a greenhouse for 10 days, after which time all treated plants were compared to untreated controls and visually evaluated for injury. Plant response ratings, summarized in Table C, are based on a 0 to 100 scale where 0 is no effect and 100 is complete control. A dash (-) response means no test result.
# rice = assay: Test D flooded paddy test; type: in vivo, Oryza sativa; conditions: 250 g ai/ha, applied to paddy water, visual rating after 13 to 14 days, scale 0 to 100 (0 no effect, 100 complete control)
# Procedure, shortened: as §2
# ducksalad = assay: Test D flooded paddy test; type: in vivo, Heteranthera limosa; conditions: 250 g ai/ha, applied to paddy water, visual rating after 13 to 14 days, scale 0 to 100 (0 no effect, 100 complete control)
# Procedure, shortened: as §2
# oat, wild [16] = assay: Test C preemergence; type: in vivo, Avena fatua
# Procedure, shortened: as §1
# ryegrass, Italian [17] = assay: Test C postemergence; type: in vivo, Lolium multiflorum; conditions: 10 days, 0 to 100 scale (0 no effect, 100 complete control)
# Procedure, shortened: as §1
# foxtail, giant [18] = assay: Test C postemergence; type: in vivo, Setaria faberi; conditions: 10 days, 0 to 100 scale (0 no effect, 100 complete control)
# Description: as §3
# pigweed, palmer [19] = assay: Test C preemergence; type: in vivo, Amaranthus palmeri
# Procedure, shortened: as §1
# soybean [20] = assay: Test C preemergence; type: in vivo, Glycine max
# Procedure, shortened: as §1
# sedge, umbrella = assay: Test D flooded paddy test; type: in vivo, Cyperus difformis; conditions: 250 g ai/ha, applied to paddy water, visual rating after 13 to 14 days, scale 0 to 100 (0 no effect, 100 complete control)
# Procedure, shortened: as §2
# wheat [21] = assay: Test C postemergence; type: in vivo, Triticum aestivum; conditions: 10 days, 0 to 100 scale (0 no effect, 100 complete control)
# Procedure, shortened: as §1
# [22] = 500 g ai/ha, preemergence, 0 to 100 scale (0 no effect, 100 complete control)
# [23] = Preemergence, 125 g ai/ha, 0 to 100 scale, 0 no effect, 100 complete control
smiles,measurement,setting,value
COc1ccc(-n2cnc(C3CCC3)n2)cc1C(=O)N1C[C@H](C)Oc2c(Cl)cccc21 [Compound 323],Blackgrass plant response rating,blackgrass [1]; [22],80
same,"Plant response rating, Blackgrass",blackgrass [1]; [23],70
same,Barnyardgrass plant response rating,barnyardgrass [2]; [22],100
same,"Plant response rating, Barnyardgrass",barnyardgrass [2]; [23],70
same,Kochia plant response rating,kochia [3]; [22],100
same,"Plant response rating, Kochia",kochia [3]; [23],90
same,"Plant response rating, Oat, Wild","oat, wild [4]; 500 g ai/ha, postemergence",20
same,"Plant response rating, Oat, Wild","oat, wild [4]; Postemergence, 125 g ai/ha",20
same,"Plant response rating, Kochia","kochia [5]; 500 g ai/ha, postemergence",90
same,"Plant response rating, Kochia","kochia [5]; Postemergence, 125 g ai/ha",90
same,"Plant response rating, Corn","corn; 500 g ai/ha, postemergence",50
same,"Plant response rating, Corn","corn; Postemergence, 125 g ai/ha",10
same,"Plant response rating, Ragweed","ragweed [6]; 500 g ai/ha, postemergence",70
same,"Plant response rating, Ragweed","ragweed [6]; Postemergence, 125 g ai/ha",60
same,Ragweed plant response rating,ragweed [7]; [22],100
same,"Plant response rating, Ragweed",ragweed [7]; [23],30
same,"Plant response rating, Soybean","soybean [8]; 500 g ai/ha, postemergence",100
same,"Plant response rating, Soybean","soybean [8]; Postemergence, 125 g ai/ha",100
same,Wheat plant response rating,wheat [9]; [22],80
same,"Plant response rating, Wheat",wheat [9]; [23],60
same,"Plant response rating, Barnyardgrass (Flood)",barnyardgrass [10],30
same,"Plant response rating, Galium","galium; 500 g ai/ha, postemergence",100
same,"Plant response rating, Galium","galium; Postemergence, 125 g ai/ha",100
same,"Plant response rating, Horseweed","horseweed; 500 g ai/ha, postemergence",40
same,"Plant response rating, Horseweed","horseweed; Postemergence, 125 g ai/ha",30
same,"Ryegrass, Italian plant response rating","ryegrass, Italian [11]; [22]",80
same,"Plant response rating, Ryegrass, Italian","ryegrass, Italian [11]; [23]",70
same,"Plant response rating, Pigweed, Palmer","pigweed, palmer [12]; 500 g ai/ha, postemergence",100
same,"Plant response rating, Pigweed, Palmer","pigweed, palmer [12]; Postemergence, 125 g ai/ha",80
same,"Plant response rating, Blackgrass","blackgrass [13]; 500 g ai/ha, postemergence",90
same,"Plant response rating, Blackgrass","blackgrass [13]; Postemergence, 125 g ai/ha",50
same,"Plant response rating, Barnyardgrass","barnyardgrass [14]; 500 g ai/ha, postemergence",60
same,"Plant response rating, Barnyardgrass","barnyardgrass [14]; Postemergence, 125 g ai/ha",30
same,"Foxtail, Giant plant response rating","foxtail, giant [15]; [22]",100
same,"Plant response rating, Foxtail, Giant","foxtail, giant [15]; [23]",90
same,"Plant response rating, Rice (Flood)",rice,0
same,"Plant response rating, Ducksalad (Flood)",ducksalad,30
same,"Oat, Wild plant response rating","oat, wild [16]; [22]",70
same,"Plant response rating, Oat, Wild","oat, wild [16]; [23]",20
same,"Plant response rating, Ryegrass, Italian","ryegrass, Italian [17]; 500 g ai/ha, postemergence",60
same,"Plant response rating, Ryegrass, Italian","ryegrass, Italian [17]; Postemergence, 125 g ai/ha",10
same,"Plant response rating, Foxtail, Giant","foxtail, giant [18]; 500 g ai/ha, postemergence",90
same,"Plant response rating, Foxtail, Giant","foxtail, giant [18]; Postemergence, 125 g ai/ha",20
same,"Pigweed, Palmer plant response rating","pigweed, palmer [19]; [22]",100
same,"Plant response rating, Pigweed, Palmer","pigweed, palmer [19]; [23]",100
same,Soybean plant response rating,soybean [20]; [22],80
same,"Plant response rating, Soybean",soybean [20]; [23],50
same,"Plant response rating, Sedge, Umbrella (Flood)","sedge, umbrella",70
same,"Plant response rating, Wheat","wheat [21]; 500 g ai/ha, postemergence",20
same,"Plant response rating, Wheat","wheat [21]; Postemergence, 125 g ai/ha",20
